Source: ChEMBL document CHEMBL4417631, “Oral peptide inhibitors of interleukin-23 receptor and their use to treat inflammatory bowel diseases” (2017)

Columns and labels:
Interleukin-23 receptor [1] = biological target: T1, Interleukin-23 receptor (Homo sapiens, UniProt Q5VWK5); assay: Inhibition of interleukin-23 binding to human interleukin-23 receptor incubated for 2 hrs by competitive binding ELISA
T1 sequence (Q5VWK5 whole entry): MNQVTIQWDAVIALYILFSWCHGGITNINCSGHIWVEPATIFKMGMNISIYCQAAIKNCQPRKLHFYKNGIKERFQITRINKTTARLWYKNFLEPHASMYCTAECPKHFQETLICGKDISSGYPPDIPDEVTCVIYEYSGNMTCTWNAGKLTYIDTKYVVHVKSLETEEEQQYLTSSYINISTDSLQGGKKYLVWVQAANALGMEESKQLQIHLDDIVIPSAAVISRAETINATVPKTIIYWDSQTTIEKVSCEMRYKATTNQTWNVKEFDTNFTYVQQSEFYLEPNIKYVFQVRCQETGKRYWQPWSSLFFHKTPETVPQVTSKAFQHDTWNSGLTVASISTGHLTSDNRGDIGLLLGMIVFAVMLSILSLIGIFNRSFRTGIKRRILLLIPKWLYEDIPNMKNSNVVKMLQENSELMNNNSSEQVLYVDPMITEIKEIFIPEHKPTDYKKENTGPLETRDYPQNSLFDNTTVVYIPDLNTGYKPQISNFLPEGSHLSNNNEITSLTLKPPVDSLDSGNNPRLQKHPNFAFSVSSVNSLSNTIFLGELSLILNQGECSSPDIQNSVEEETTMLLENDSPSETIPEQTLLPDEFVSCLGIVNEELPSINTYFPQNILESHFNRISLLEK

[2] = Half life in simulated intestinal fluid at 20 uM by LC-MS/MS analysis; assay type: ADME
[3] = Half life in DTT at 50 uM up up to 120 mins by reverse phase HPLC and UV detection based assay; assay type: physicochemical
Interleukin-23 receptor [4] = biological target: T1, Interleukin-23 receptor; assay: Inhibition of interleukin-23 receptor in human DB cells assessed as reduction in IL-23-stimulated STAT3 phosphorylation incubated for 30 mins by HTRF assay; assay type: cell-based
[5] = Inhibition of interleukin-23 binding to rat interleukin-23 receptor incubated for 2 hrs by competitive binding ELISA
Interleukin-23 receptor [6] = biological target: T2, Interleukin-23 receptor (Mus musculus, UniProt Q8K4B4); assay: Inhibition of interleukin-23 binding to mouse interleukin-23 receptor incubated for 2 hrs by competitive binding ELISA
T2 sequence (Q8K4B4 whole entry): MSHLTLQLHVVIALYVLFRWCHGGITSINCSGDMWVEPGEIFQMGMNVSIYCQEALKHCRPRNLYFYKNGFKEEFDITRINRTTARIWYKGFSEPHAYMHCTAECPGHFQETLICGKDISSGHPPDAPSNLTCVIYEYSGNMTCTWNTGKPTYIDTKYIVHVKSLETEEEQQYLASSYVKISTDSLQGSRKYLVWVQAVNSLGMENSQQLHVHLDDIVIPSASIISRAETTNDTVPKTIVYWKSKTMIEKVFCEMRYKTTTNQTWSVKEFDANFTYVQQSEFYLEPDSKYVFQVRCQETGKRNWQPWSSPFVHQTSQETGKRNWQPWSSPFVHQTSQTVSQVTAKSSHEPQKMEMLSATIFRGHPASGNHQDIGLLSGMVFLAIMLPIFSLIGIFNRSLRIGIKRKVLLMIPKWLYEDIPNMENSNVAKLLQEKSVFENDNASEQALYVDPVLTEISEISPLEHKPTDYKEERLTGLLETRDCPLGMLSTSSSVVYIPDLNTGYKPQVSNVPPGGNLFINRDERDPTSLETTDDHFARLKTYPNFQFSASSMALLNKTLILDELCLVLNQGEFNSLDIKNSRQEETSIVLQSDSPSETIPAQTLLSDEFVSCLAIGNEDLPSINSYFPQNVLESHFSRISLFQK

[7] = Inhibition of interleukin-23 binding to cynomolgus monkey interleukin-23 receptor incubated for 2 hrs by competitive binding ELISA; design: species or system Macaca fascicularis
[8] = Half life in simulated gastric fluid at 20 uM by LC-MS/MS analysis; assay type: ADME

| Compound | IC50 (Interleukin-23 receptor [1]) [nM] | half-life at 20 µM [2] [h] | half-life at 50 µM [3] [h] | IC50 (Interleukin-23 receptor [4]) [nM] | IC50 [5] [nM] | IC50 (Interleukin-23 receptor [6]) [nM] | IC50 [7] [nM] | half-life at 20 µM [8] [h] |
| --- | --- | --- | --- | --- | --- | --- | --- | --- |
| CC(=O)N[C@H](C(=O)N[C@@H](CCC(N)=O)C(=O)N[C@H](C(=O)N[C@@H](Cc1c[nH]c2ccccc12)C(=O)N[C@@H](CCC(N)=O)C(=O)N[C@H](C(=O)N[C@@H](Cc1ccc(O)cc1)C(=O)N[C@@H](Cc1c[nH]c2ccccc12)C(=O)N[C@@H](CCC(C)C)C(=O)N[C@@H](CCC(=O)O)C(=O)N[C@@H](CC(N)=O)C(=O)NCC(N)=O)C(C)(C)S)[C@@H](C)O)C(C)(C)S | 100 to 1000 | < 1 | > 2 |  |  |  |  |  |
| CC(=O)N[C@H](C(=O)N[C@@H](CCC(N)=O)C(=O)N[C@H](C(=O)N[C@@H](Cc1c[nH]c2ccccc12)C(=O)N[C@@H](CCC(N)=O)C(=O)N[C@H](C(=O)N[C@@H](Cc1ccc(O)cc1)C(=O)N[C@@H](Cc1c[nH]c2ccccc12)C(=O)N[C@@](C)(CC(C)C)C(=O)N[C@@H](CCC(=O)O)C(=O)N[C@@H](CC(N)=O)C(=O)NCC(N)=O)C(C)(C)S)[C@@H](C)O)C(C)(C)S | 25 to 100 | 3 to 6 | > 2 | 10 to 25 | 100 to 1000 |  |  |  |
| CC(=O)N[C@H]1CCSC[C@@H](C(=O)N[C@@H](Cc2ccc(O)cc2)C(=O)N[C@@H](Cc2c[nH]c3ccccc23)C(=O)N[C@@H](CCCNC(=N)N)C(=O)N[C@@H](CCCCN)C(=O)N[C@@H](Cc2ccccc2)C(=O)NCC(=O)NCCOCC(=O)N[C@H](CCCCN)C(N)=O)NC(=O)[C@H](CCC(N)=O)NC(=O)[C@H](Cc2c[nH]c3ccccc23)NC(=O)[C@H]([C@@H](C)O)NC(=O)[C@H](CCCNC(=N)N)NC1=O | 25 to 100 | < 1 | > 2 | 25 to 100 | 100 to 1000 |  |  |  |
| CC(=O)N[C@@H](CS)C(=O)N[C@@H](CCC(N)=O)C(=O)N[C@H](C(=O)N[C@@H](Cc1c[nH]c2ccccc12)C(=O)N[C@@H](CCC(N)=O)C(=O)N[C@@H](CS)C(=O)N[C@@H](Cc1ccc(O)cc1)C(=O)N[C@@H](Cc1c[nH]c2ccccc12)C(=O)N[C@@H](CCC(C)C)C(=O)N[C@@H](CCC(=O)O)C(=O)N[C@@H](CC(N)=O)C(=O)NCC(N)=O)[C@@H](C)O |  |  | 0.167 to 2 |  |  |  |  |  |
| CC(C)[C@H](NC(=O)[C@H](Cc1c[nH]c2ccccc12)NC(=O)[C@H](CC(=O)O)NC(=O)[C@H](C)NC(=O)[C@@H](N)CS)C(=O)N[C@@H](CS)C(=O)N[C@@H](Cc1ccc(O)cc1)C(=O)N[C@@H](Cc1c[nH]c2ccccc12)C(=O)N[C@@H](Cc1cnc[nH]1)C(=O)N[C@H](C(=O)N[C@@H](Cc1ccccc1)C(=O)NCC(N)=O)[C@@H](C)O | 100 to 1000 |  |  | 100 to 1000 | 251 to 1000 | > 25000 | 1000 to 10000 |  |
| CC(=O)N[C@H]1CCSC[C@@H](C(=O)N[C@@H](Cc2ccc(OCCN)cc2)C(=O)N[C@@H](Cc2ccc3ccccc3c2)C(=O)NC2(C(=O)N[C@@H](CCC(=O)O)C(=O)N[C@@H](CC(N)=O)C(=O)N[C@@H](CC(N)=O)C(N)=O)CCOCC2)NC(=O)[C@H](CCC(N)=O)NC(=O)[C@H](Cc2c[nH]c3ccccc23)NC(=O)[C@H]([C@@H](C)O)NC(=O)[C@H](CCC(N)=O)NC1=O |  |  | > 2 |  |  |  |  |  |
| COc1ccc(C[C@H](NC(=O)[C@@H](NC(=O)[C@H](CCC(N)=O)NC(=O)[C@H](Cc2c[nH]c3ccccc23)NC(=O)[C@@H](NC(=O)[C@H](CCC(N)=O)NC(=O)[C@@H](NC(C)=O)C(C)(C)S)[C@@H](C)O)C(C)(C)S)C(=O)N[C@@H](Cc2ccc3ccccc3c2)C(=O)N[C@@](C)(CCCCN)C(=O)N[C@@H](CCC(=O)O)C(=O)N[C@@H](CC(N)=O)C(=O)NCC(N)=O)cc1 | 25 to 100 | 3 to 6 | > 2 | 10 to 25 | 100 to 1000 |  |  | 2 to 3 |
